These are literature values, as cited in patent publication US20260248735A1, “A METHOD FOR PREPARING MICROPARTICLES FOR DRUG DELIVERY” (Danmarks Tekniske Universitet, priority 2023, published 2026).

The conditions of this series: as characterised by BCS class.

In the case of calcitonin, the solubility entry is “high”.
